From patent publication US12090164B2, “Genotype-agnostic rescue of cystic fibrosis with small molecule bicarbonate channels” (The Board of Trustees of the University of Illinois, priority 2017, dated 2024)
“Also recorded” adds a separate entry of the source.

Assays:
Assay type in all cases: cell-based, human
[1] = system: CuFi-4 (G551D/ΔF508) epithelia; test: ASL pH in cultured CF airway epithelia (SNARF-dextran)
Protocol: (§1) Small diameter NuLi, CuFi, and primary cultured epithelia were used for this experiment (0.33 cm^2). The ratiometric pH indicator SNARF-conjugated dextran (Molecular Probes) was used to measure ASL pH. SNARF powder was suspended via sonication in perfluorocarbon (FC-72, Sigma) and distributed onto the apical surface. ASL pH was measured 2 hr later (3, 4, 25). SNARF was excited at 488 nm and emission was recorded at 580 nm and 640 nm using a Zeiss LSM 800 microscope at 40× water immersion for cell line cultures and a Zeiss LSM 510 microscope for primary cultures. To generate a standard curve for pH determination, SNARF was dissolved in colorless pH standards and fluorescence ratios were converted to pH.
(§2) Agents tested in this assay were first lyophilized into powder and then suspended in the appropriate volume of perfluorocarbon (FC-72, Sigma) and sonicated for 1 minute to suspend. AmBisome should not be sonicated; instead, the fine powder was suspended by vortexing.
(§3) In all experiments, ASL pH of compound-treated epithelia was measured compared the results to vehicle-treated epithelia.
(§4) For apical AmB administration, cultured airway epithelia were incubated for 30 min-48 hrs at 37° C. before measurement of ASL pH. For AmB-cholesterol complex and C35deOAmB administration, cultured airway epithelia were incubated for 48 hrs at 37° C. before measurement of ASL pH. To test the effect of […] ATPase inhibition, AmB was administered 47 hours prior to 10 mM ouabain addition, and cultured airway epithelia were incubated for an additional 1 hr at 37° C. before measurement of ASL pH. For 10 μM ivacaftor/10 μM forskolin administration, cultured airway epithelia were incubated for 2 hrs at 37° C. before measurement of ASL pH (25). For basolateral AmB administration, a 2 mM stock of AmB in DMSO was diluted 1000-fold to a final concentration of 2 μM in USG media. The basolateral media of cultured airway epithelia was replaced with the AmB-containing USG media and incubated for 48 hrs at 37° C. before measurement of ASL pH.

[2] = system: CuFi-1 (ΔF508/ΔF508) epithelia; test: as above
Protocol: as §1, §2, §3, §4

[3] = system: CuFi-1 epithelial monolayers; test: pH-stat titration of apical alkalinization; settings: AmB 0.5, 1, 2 μM
Protocol: Large diameter NuLi and CuFi-1 cultured epithelia were used for this experiment (4.67 cm^2). These cultures were mounted in a dual-channel Ussing chamber (Warner U2500) using the culture cup insert for Transwell adapter, 24 mm (U9924T-24). The membranes were bathed at 37° C. on the apical side with a buffer-free solution (140 mM NaCl, 2 mM KCl, 2 mM CaCl2), and 1 mM MgCl2, 15 mM dextrose, gassed with air) and on the basolateral side with either a HCO3^− buffer (120 mM NaCl, 25 mM NaHCO3, 5 mM KCl, 2 mM CaC2, 1.2 mM MgCl2, 13.75 NaH2PO4, 5.6 mM dextrose, pH adjusted to 7.0) or a HCO3^−-free buffer (140 mM NaCl, 2 mM KCl, 2 mM CaCl2), 1 mM MgCl2, 10 mM HEPES, 5 mM dextrose, pH adjusted to 7.0). A microdiameter pH electrode (89231-590) and temperature probe (Radiometer Analytical T201 Temperature Sensor, E51M001) and titration burette attached to a Hach TIM856 NB pH/EP/Stat pH-STAT Titrator (R41T028) were inserted into the apical chamber. The basolateral chamber was covered with the chamber lid to prevent gas exchange. […]
The apical pH was titrated to a target pH of 6.0 using 1 mM HCl as titrant (min speed 0.25 mL/min, max speed 0.35 mL/min) (28, 57-59). Acid titration was measured over 20 minutes to establish a baseline value for the cultured epithelia […]. […] Acid titration was then measured over another 20 minutes to evaluate AmB-mediated pH change in the apical solution. […]

## C[C@@H]1[C@H](O)[C@@H](C)/C=C/C=C/C=C/C=C/C=C/C=C/C=C/[C@H](O[C@@H]2O[C@H](C)[C@@H](O)[C@H](N)[C@@H]2O)C[C@@H]2O[C@](O)(C[C@@H](O)C[C@@H](O)[C@H](O)CC[C@@H](O)C[C@@H](O)CC(=O)O[C@H]1C)C[C@H](O)[C@H]2C(=O)O [AmB, amphotericin B]
[1]; AmB 2 μM, ivacaftor/forskolin 10 μM
  increase in ASL pH: ~0.2 unit
[1]; apical AmB 2 μM 48 h, ivacaftor/forskolin 10 μM 2 h
  ASL pH: increase ASL pH; also recorded: increased the ASL pH; also recorded: increased ASL pH and H^14CO3^− secretion
[2]; AmB 2 μM basolateral, 48 h
  ASL pH, basolateral addition of AmB: an increase in ASL pH was not observed; also recorded: No increase in pH was observed; also recorded: did not raise ASL pH or increase H^14CO3^− secretion
[2]; AmB or C35deOAmB 2 μM, ivacaftor/forskolin 10 μM, 2 h, vs vehicle
  ASL pH, apical addition: increases ASL pH relative to an untreated CuFi-1 control over 2 hours; also recorded: progressive increase in pH over 2 hours; also recorded: increased the ASL pH; also recorded: increased both; also recorded: progressively increased ASL pH over 2 hours
[2]; apical AmB 2 μM
  time for which the increase in ASL pH is sustained: at least 48 hours
[2]; apical addition
  AmB concentration at which increase in ASL pH reaches a maximum: 2 μM
[2]; increasing concentrations up to 100 μM AmB
  concentration dependence of ASL pH increase: increases ASL pH in CuFi-1 monolayers at low but not at high concentrations; also recorded: decreases at higher concentrations; also recorded: ASL pH increased and then fell with progressively increasing concentrations of AmB
[3]; HCO3−-free buffer
  rate of apical alkalinization, bicarbonate free basolateral buffer: no change in rate of apical alkalinization was observed with any tested concentration of AmB; also recorded: not in the absence of basolateral bicarbonate
[3]; basolateral bicarbonate 25 mM
  rate of apical chamber alkalinization, basolateral bicarbonate present: increased the rate of apical chamber alkalization of CuFi-1 epithelia in a dose-dependent fashion; also recorded: dose-dependent increase in ASL pH
